Read-outs that look alike come from different tables or passages of the source.
Experiments:
MV4;11 cells = assay: Cell viability assay (CellTiter-Glo) in MV4;11 cells; assay type: cell-based; conditions: read-out: MV4
Summary of the method: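 5000 cells/well in RPMI 1640 or DMEM with 10% FBS, treated with 8- or 12-point 3-fold compound dilutions, with or without gilteritinib (10 nM for MV4;11, 20 nM for MOLM-13). Viability by CellTiter-Glo after three days; IC50 by nonlinear least-squares regression.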

MOLM-13 cells = assay: Cell viability assay (CellTiter-Glo) in MOLM-13 cells; assay type: cell-based
[1] = Homo sapiens, MV4-11, 72 h, MV4;11 cells, compound alone, three days, 11 IC50
[2] = MV4;11 cells, with 10 nM gilteritinib, three days, 11 IC50 (nM) + 10 nM Gil
[3] = Homo sapiens, 72 h, MOLM-13 cells, compound alone, three days, read-out: MOLM-13 IC50
[4] = MOLM-13 cells, with gilteritinib, three days, read-out: MOLM-13 IC50 (nM) + 10 nM Gil

Compound	IC50 (MV4;11 cells; [1])	IC50 (MV4;11 cells; [2])	IC50 (MOLM-13 cells; [3])	IC50 (MOLM-13 cells; [4])	IC50 (MV4;11 cells; Homo sapiens, MV4-11, 72 h, 11 IC50 (nM))	IC50 (MV4;11 cells; 11 IC50 (nM) + 10 nM Gil, MV4;11 cells, with 10 nM gilteritinib, three days)	IC50 (MOLM-13 cells; Homo sapiens, MOLM-13, 72 h, read-out: MOLM-13 IC50 (nM))	IC50 (MOLM-13 cells; read-out: MOLM-13 IC50 (nM) + 10 nM Gil, MOLM-13 cells, with gilteritinib, three days)
N[C@H]1C[C@H](n2ncc3cnc(-c4cn([C@H]5C[C@H](CNc6ccc7c(c6)C(=O)N(C6CCC(=O)NC6=O)C7=O)C5)nc4C4CC4)cc32)C1 (stereo partly drawn) [GS-776, 5-(((Trans-3-(4-(1-(trans-3-aminocyclobutyl)-1H-pyrazolo[4,3-c]pyridin-6-yl)-3-cyclopropyl-1H-pyrazol-1-yl)cyclobutyl)methyl)amino)-2-(2,6-dioxopiperidin-3-yl)isoindoline-1,3-dione]	10 to 100 nM	< 10 nM	10 to 100 nM	< 10 nM	–	–	–	–
Cn1cnc2cnc(-c3cn([C@H]4C[C@H](CNc5ccc6c(c5)C(=O)N(C5CCC(=O)NC5=O)C6=O)C4)nc3C3CC3)cc21 (stereo partly drawn) [GS-658, 5-(((Trans-3-(3-cyclopropyl-4-(1-methyl-1H-imidazo[4,5-c]pyridin-6-yl)-1H-pyrazol-1-yl)cyclobutyl)methyl)amino)-2-(2,6-dioxopiperidin-3-yl)isoindoline-1,3-dione]	> 1000 nM	100 to 1000 nM	> 1000 nM	100 to 1000 nM	–	–	–	–
N[C@H]1C[C@H](n2cc3cnc(-c4cn([C@H]5C[C@H](CNc6ccc7c(c6)C(=O)N(C6CCC(=O)NC6=O)C7=O)C5)nc4C4CC4)cc3n2)C1 (stereo partly drawn) [GS-786, 5-(((Trans-3-(4-(2-(trans-3-aminocyclobutyl)-2H-pyrazolo[4,3-c]pyridin-6-yl)-3-cyclopropyl-1H-pyrazol-1-yl)cyclobutyl)methyl)amino)-2-(2,6-dioxopiperidin-3-yl)isoindoline-1,3-dione]	< 10 nM	< 10 nM	10 to 100 nM	< 10 nM	–	–	–	–
O=C1CCC(N2C(=O)c3ccc(NC[C@H]4C[C@H](n5cc(-c6cnc7ccc(N8CC(O)C8)cc7n6)c(C6CC6)n5)C4)cc3C2=O)C(=O)N1 (stereo partly drawn) [GS-644, 5-(((Trans-3-(3-cyclopropyl-4-(7-(3-hydroxyazetidin-1-yl)quinoxalin-2-yl)-1H-pyrazol-1-yl)cyclobutyl)methyl)amino)-2-(2,6-dioxopiperidin-3-yl)isoindoline-1,3-dione]	10 to 100 nM	< 10 nM	10 to 100 nM	< 10 nM	–	–	–	–
O=C1CCC(N2C(=O)c3ccc(NC[C@H]4C[C@H](n5cc(-c6cnc7ccc(C8CC(O)C8)cc7n6)c(C6CC6)n5)C4)cc3C2=O)C(=O)N1 (stereo partly drawn) [GS-764, 5-(((Trans-3-(3-cyclopropyl-4-(7-(3-hydroxycyclobutyl)quinoxalin-2-yl)-1H-pyrazol-1-yl)cyclobutyl)methyl)amino)-2-(2,6-dioxopiperidin-3-yl)isoindoline-1,3-dione]	< 10 nM	< 10 nM	< 10 nM	< 10 nM	–	–	–	–
O=C1CCC(N2C(=O)c3ccc(NCCC4CC5(C4)CC(n4cc(-c6cnc7ccccc7n6)c(C6CC6)n4)C5)cc3C2=O)C(=O)N1 (stereo not drawn) [GS-724, 5-((2-(6-(3-Cyclopropyl-4-(quinoxalin-2-yl)-1H-pyrazol-1-yl)spiro[3.3]heptan-2-yl)ethyl)amino)-2-(2,6-dioxopiperidin-3-yl)isoindoline-1,3-dione]	< 10 nM	< 10 nM	10 to 100 nM	< 10 nM	–	–	–	–
O=C1CCC(N2C(=O)c3ccc(NC[C@H]4C[C@H](n5cc(-c6ncc(F)cc6OC6CC6)c(C6CC6)n5)C4)cc3C2=O)C(=O)N1 (stereo partly drawn) [GS-752, 5-(((Trans-3-(4-(3-cyclopropoxy-5-fluoropyridin-2-yl)-3-cyclopropyl-1H-pyrazol-1-yl)cyclobutyl)methyl)amino)-2-(2,6-dioxopiperidin-3-yl)isoindoline-1,3-dione]	< 10 nM	< 10 nM	< 10 nM	< 10 nM	–	–	–	–
Cc1nc(-c2cn([C@H]3C[C@H](COc4ccc5c(c4)C(=O)N(C4CCC(=O)NC4=O)C5=O)C3)nc2C2CC2)ccc1F (stereo partly drawn) [GS-715, 5-((Trans-3-(3-cyclopropyl-4-(5-fluoro-6-methylpyridin-2-yl)-1H-pyrazol-1-yl)cyclobutyl)methoxy)-2-(2,6-dioxopiperidin-3-yl)isoindoline-1,3-dione]	> 1000 nM	100 to 1000 nM	> 1000 nM	–	–	–	–	–
O=C1CCC(N2C(=O)c3ccc(NC[C@H]4C[C@H](n5cc(-c6cccc(N7CC(O)C7)n6)c(C6CC6)n5)C4)cc3C2=O)C(=O)N1 (stereo partly drawn) [GS-647, 5-(((Trans-3-(3-cyclopropyl-4-(6-(3-hydroxyazetidin-1-yl)pyridin-2-yl)-1H-pyrazol-1-yl)cyclobutyl)methyl)amino)-2-(2,6-dioxopiperidin-3-yl)isoindoline-1,3-dione]	> 1000 nM	100 to 1000 nM	> 1000 nM	10 to 100 nM	–	–	–	–
O=C1CCC(N2C(=O)c3ccc(NC[C@H]4C[C@H](n5cc(Nc6ccccc6)c(C6CC6)n5)C4)cc3C2=O)C(=O)N1 (stereo partly drawn) [GS-739, 5-(((Trans-3-(3-Cyclopropyl-4-(phenylamino)-1H-pyrazol-1-yl)cyclobutyl)methyl)amino)-2-(2,6-dioxopiperidin-3-yl)isoindoline-1,3-dione]	–	–	–	–	10 to 100 nM	< 10 nM	10 to 100 nM	< 10 nM

The next lines start with results.

IC50 (MV4;11 cells; [1])	IC50 (MV4;11 cells; [2])	IC50 (MOLM-13 cells; [3])	IC50 (MOLM-13 cells; [4])	Compound	IC50 (MV4;11 cells; Homo sapiens, MV4-11, 72 h, 11 IC50 (nM))	IC50 (MV4;11 cells; 11 IC50 (nM) + 10 nM Gil, MV4;11 cells, with 10 nM gilteritinib, three days)	IC50 (MOLM-13 cells; Homo sapiens, MOLM-13, 72 h, read-out: MOLM-13 IC50 (nM))	IC50 (MOLM-13 cells; read-out: MOLM-13 IC50 (nM) + 10 nM Gil, MOLM-13 cells, with gilteritinib, three days)
< 10 nM	< 10 nM	10 to 100 nM	< 10 nM	O=C1CCC(N2Cc3cc(NC[C@H]4C[C@H](n5cc(-c6cnc7ccccc7n6)c(C6CC6)n5)C4)ccc3C2=O)C(=O)N1 (stereo partly drawn) [GS-651, 3-(5-(((trans-3-(3-Cyclopropyl-4-(quinoxalin-2-yl)-1H-pyrazol-1-yl)cyclobutyl)methyl)amino)-1-oxoisoindolin-2-yl)piperidine-2,6-dione]	–	–	–	–
> 1000 nM	–	> 1000 nM	–	O=C1CCC(N2C(=O)c3ccc(NC[C@H]4C[C@H](n5cc(-c6ncccc6C6CNC6)c(C6CC6)n5)C4)cc3C2=O)C(=O)N1 (stereo partly drawn) [GS-745, 5-(((Trans-3-(4-(3-(azetidin-3-yl)pyridin-2-yl)-3-cyclopropyl-1H-pyrazol-1-yl)cyclobutyl)methyl)amino)-2-(2,6-dioxopiperidin-3-yl)isoindoline-1,3-dione]	–	–	–	–
< 10 nM	< 10 nM	10 to 100 nM	< 10 nM	O=C1CCC(N2C(=O)c3ccc(NC[C@H]4C[C@H](n5cc(-n6ccc7cccnc76)c(C6CC6)n5)C4)cc3C2=O)C(=O)N1 (stereo partly drawn) [GS-751, 5-(((Trans-3-(3-cyclopropyl-4-(1H-pyrrolo[2,3-b]pyridin-1-yl)-1H-pyrazol-1-yl)cyclobutyl)methyl)amino)-2-(2,6-dioxopiperidin-3-yl)isoindoline-1,3-dione]	–	–	–	–
10 to 100 nM	< 10 nM	10 to 100 nM	< 10 nM	O=C1CCC(N2C(=O)c3ccc(NC[C@H]4C[C@H](n5cc(-c6ccc7c(n6)C(O)CC7)c(C6CC6)n5)C4)cc3C2=O)C(=O)N1 (stereo partly drawn) [GS-780, 5-(((Trans-3-(3-cyclopropyl-4-(7-hydroxy-6,7-dihydro-5H-cyclopenta[b]pyridin-2-yl)-1H-pyrazol-1-yl)cyclobutyl)methyl)amino)-2-(2,6-dioxopiperidin-3-yl)isoindoline-1,3-dione]	–	–	–	–
10 to 100 nM	10 to 100 nM	100 to 1000 nM	10 to 100 nM	O=C1CCC(N2C(=O)c3ccc(NC[C@H]4C[C@H](n5cc(Nc6cccnc6)c(C6CC6)n5)C4)cc3C2=O)C(=O)N1 (stereo partly drawn) [GS-670, 5-(((Trans-3-(3-cyclopropyl-4-(pyridin-3-ylamino)-1H-pyrazol-1-yl)cyclobutyl)methyl)amino)-2-(2,6-dioxopiperidin-3-yl)isoindoline-1,3-dione]	–	–	–	–
100 to 1000 nM	10 to 100 nM	> 1000 nM	10 to 100 nM	O=C1CCC(N2C(=O)c3ccc(NCC4CC(n5cc(-c6cnc7cc(C8CNC8)ccc7n6)c(C6CC6)n5)C4)cc3C2=O)C(=O)N1 (stereo not drawn) [GS-746]	–	–	–	–
> 1000 nM	100 to 1000 nM	> 1000 nM	100 to 1000 nM	O=C1CCC(N2C(=O)c3ccc(NC[C@H]4C[C@H](n5nc(C6CC6)c6cccc(N7CCNCC7)c65)C4)cc3C2=O)C(=O)N1 (stereo partly drawn) [GS-765, 5-(((Trans-3-(3-cyclopropyl-7-(piperazin-1-yl)-1H-indazol-1-yl)cyclobutyl)methyl)amino)-2-(2,6-dioxopiperidin-3-yl)isoindoline-1,3-dione]	–	–	–	–
> 1000 nM	–	> 1000 nM	–	O=C1CCC(N2Cc3ccc(NC[C@H]4C[C@H](n5cc(-c6cnc7ccccc7n6)c(C6CC6)n5)C4)cc3C2=O)C(=O)N1 (stereo partly drawn) [GS-662, 3-(6-(((Trans-3-(3-cyclopropyl-4-(quinoxalin-2-yl)-1H-pyrazol-1-yl)cyclobutyl)methyl)amino)-1-oxoisoindolin-2-yl)piperidine-2,6-dione]	–	–	–	–
10 to 100 nM	< 10 nM	10 to 100 nM	< 10 nM	Cn1ccc2ccc(-c3cn([C@H]4C[C@H](CNc5ccc6c(c5)C(=O)N(C5CCC(=O)NC5=O)C6=O)C4)nc3C3CC3)nc21 (stereo partly drawn) [GS-722, 5-(((trans-3-(3-cyclopropyl-4-(1-methyl-1H-pyrrolo[2,3-b]pyridin-6-yl)-1H-pyrazol-1-yl)cyclobutyl)methyl)amino)-2-(2,6-dioxopiperidin-3-yl)isoindoline-1,3-dione]	–	–	–	–
< 10 nM	< 10 nM	10 to 100 nM	< 10 nM	O=C1CCC(N2C(=O)c3ccc(NC[C@H]4C[C@H](n5cc(-n6ncc7cccnc76)c(C6CC6)n5)C4)cc3C2=O)C(=O)N1 (stereo partly drawn) [GS-777, 5-(((Trans-3-(3-cyclopropyl-4-(1H-pyrazolo[3,4-b]pyridin-1-yl)-1H-pyrazol-1-yl)cyclobutyl)methyl)amino)-2-(2,6-dioxopiperidin-3-yl)isoindoline-1,3-dione]	–	–	–	–

Reference: US20250221988A1 (Cullgen (Shanghai), Inc., priority 2022, published 2025)
